In assay [1] the target is T1, Glucocorticoid receptor (Rattus norvegicus, UniProt P06536).
T1 sequence (P06536 whole entry): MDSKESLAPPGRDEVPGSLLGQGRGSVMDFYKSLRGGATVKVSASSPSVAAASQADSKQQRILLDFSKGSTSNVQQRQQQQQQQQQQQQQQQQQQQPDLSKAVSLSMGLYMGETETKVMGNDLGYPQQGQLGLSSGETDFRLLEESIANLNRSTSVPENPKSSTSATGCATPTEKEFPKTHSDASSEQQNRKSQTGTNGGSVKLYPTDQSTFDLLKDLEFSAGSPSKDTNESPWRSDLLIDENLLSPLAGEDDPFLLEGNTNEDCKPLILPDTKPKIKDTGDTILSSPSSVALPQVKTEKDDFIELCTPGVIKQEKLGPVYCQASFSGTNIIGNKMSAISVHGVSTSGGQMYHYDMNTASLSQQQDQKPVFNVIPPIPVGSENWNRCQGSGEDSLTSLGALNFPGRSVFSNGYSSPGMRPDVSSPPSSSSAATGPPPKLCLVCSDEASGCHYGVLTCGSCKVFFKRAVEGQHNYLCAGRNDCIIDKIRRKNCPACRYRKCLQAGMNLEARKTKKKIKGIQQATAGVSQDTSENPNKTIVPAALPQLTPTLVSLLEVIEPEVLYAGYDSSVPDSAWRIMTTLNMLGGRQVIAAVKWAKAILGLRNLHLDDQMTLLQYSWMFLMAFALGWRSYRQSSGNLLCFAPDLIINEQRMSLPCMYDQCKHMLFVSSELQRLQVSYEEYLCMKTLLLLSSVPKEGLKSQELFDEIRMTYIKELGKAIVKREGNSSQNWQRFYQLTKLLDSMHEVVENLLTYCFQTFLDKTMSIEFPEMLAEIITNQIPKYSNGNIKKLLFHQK
Briefly: Inhibition of dexamethasone-induced glucocorticoid receptor mediated tyrosine aminotransferase in rat hepatocytes. Format: functional, cell-based, Hepatocyte.

Assay [2] addresses T2, Glucocorticoid receptor (Homo sapiens, UniProt P04150).
T2 sequence (P04150 whole entry): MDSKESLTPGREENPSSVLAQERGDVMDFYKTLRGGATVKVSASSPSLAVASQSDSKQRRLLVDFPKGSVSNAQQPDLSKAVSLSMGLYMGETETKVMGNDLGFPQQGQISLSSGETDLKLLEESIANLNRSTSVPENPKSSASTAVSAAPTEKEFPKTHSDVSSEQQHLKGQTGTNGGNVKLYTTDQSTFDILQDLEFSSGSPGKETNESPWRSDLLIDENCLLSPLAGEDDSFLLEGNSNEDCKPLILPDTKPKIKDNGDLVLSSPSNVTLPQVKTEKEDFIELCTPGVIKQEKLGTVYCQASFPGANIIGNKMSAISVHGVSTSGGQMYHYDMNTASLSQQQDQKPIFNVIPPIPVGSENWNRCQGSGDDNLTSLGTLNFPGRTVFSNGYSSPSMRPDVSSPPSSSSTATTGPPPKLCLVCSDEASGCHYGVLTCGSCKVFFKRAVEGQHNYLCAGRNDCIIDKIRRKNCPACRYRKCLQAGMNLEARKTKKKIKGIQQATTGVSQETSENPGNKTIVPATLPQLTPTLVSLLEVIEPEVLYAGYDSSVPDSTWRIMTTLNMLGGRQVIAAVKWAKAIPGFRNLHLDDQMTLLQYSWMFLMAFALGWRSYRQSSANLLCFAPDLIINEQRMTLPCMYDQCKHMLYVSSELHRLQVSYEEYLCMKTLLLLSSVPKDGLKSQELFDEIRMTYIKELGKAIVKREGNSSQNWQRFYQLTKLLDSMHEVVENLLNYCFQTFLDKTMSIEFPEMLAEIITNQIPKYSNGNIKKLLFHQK
Nature of the assay: Inhibition of dexamethasone-induced glucocorticoid receptor mediated alkaline phosphatase activity. Format: functional.

Assay [3] concerns the target T2, Glucocorticoid receptor.
Assay [4] has as its target T3, Progesterone receptor (Homo sapiens, UniProt P06401).
T3 sequence (P06401 whole entry): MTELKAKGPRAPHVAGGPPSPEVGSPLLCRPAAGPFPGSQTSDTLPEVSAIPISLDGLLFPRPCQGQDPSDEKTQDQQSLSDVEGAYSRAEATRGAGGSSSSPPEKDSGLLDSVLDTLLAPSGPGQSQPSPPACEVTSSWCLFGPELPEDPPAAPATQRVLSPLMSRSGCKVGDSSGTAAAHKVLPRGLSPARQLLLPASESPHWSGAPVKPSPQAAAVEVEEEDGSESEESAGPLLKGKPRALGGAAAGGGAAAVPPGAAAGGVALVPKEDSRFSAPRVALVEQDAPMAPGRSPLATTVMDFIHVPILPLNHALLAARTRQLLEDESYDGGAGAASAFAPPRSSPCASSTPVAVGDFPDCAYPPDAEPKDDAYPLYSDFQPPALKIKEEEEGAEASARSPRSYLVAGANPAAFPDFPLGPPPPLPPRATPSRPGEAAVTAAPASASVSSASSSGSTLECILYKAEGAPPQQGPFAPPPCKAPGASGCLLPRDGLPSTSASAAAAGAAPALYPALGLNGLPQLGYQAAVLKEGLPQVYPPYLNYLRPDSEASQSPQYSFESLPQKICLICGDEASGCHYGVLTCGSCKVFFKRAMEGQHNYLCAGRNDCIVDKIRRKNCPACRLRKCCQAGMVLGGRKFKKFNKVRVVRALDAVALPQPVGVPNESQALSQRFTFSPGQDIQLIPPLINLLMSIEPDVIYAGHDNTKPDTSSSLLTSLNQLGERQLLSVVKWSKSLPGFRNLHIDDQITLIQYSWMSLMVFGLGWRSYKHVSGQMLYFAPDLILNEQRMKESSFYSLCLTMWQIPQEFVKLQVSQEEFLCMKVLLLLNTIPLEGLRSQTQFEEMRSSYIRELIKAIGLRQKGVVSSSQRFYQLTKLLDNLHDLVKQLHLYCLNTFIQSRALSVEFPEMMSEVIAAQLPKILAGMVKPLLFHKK
Nature of the assay: Inhibition of human progesterone receptor.

`Cc1c(NS(C)(=O)=O)cccc1N(Cc1ccc(Oc2cccc(OC[C@@H]3C[C@@H](O)CC(=O)O3)c2)cc1)Cc1ccc(F)cc1F`: the IC50 – broadly, the concentration at which inhibition is half-maximal – in assay [1] was more than 30000 nM; in assay [2], 670 nM; in assay [3] it was 25 nM.

On to `Cc1c(NS(C)(=O)=O)cccc1N(Cc1ccccc1)Cc1ccc(Oc2ccc(OC[C@@H](O)C[C@@H](O)CC(=O)O)cc2)cc1`, for which the half-inhibitory concentration (IC50) in assay [1] is more than 30000 nM; in assay [2] it was 300 nM; in assay [3], 2.1 nM.

Compound `Cc1c(NS(C)(=O)=O)cccc1N(Cc1ccc(Oc2ccccc2)cc1)Cc1ccc(F)cc1F` had an IC50 in assay [1] of more than 30000 nM.

For `CC#C[C@]1(O)CC[C@H]2[C@@H]3CCC4=CC(=O)CCC4=C3[C@@H](c3ccc(N(C)C[C@@H]4C[C@@H](O)CC(=O)O4)cc3)C[C@@]21C`, the 50% inhibitory concentration (IC50) in assay [1] stood at 140 nM; in assay [2], 23 nM; in assay [4] it was 3.8 nM; in assay [3] it was 2.3 nM.

Turning to `Cc1c(NS(C)(=O)=O)cccc1N(Cc1ccccc1)Cc1ccc(Oc2ccc(OC[C@@H]3C[C@@H](O)CC(=O)O3)cc2)cc1`, the IC50 in assay [1] is more than 30000 nM; in assay [2] it was 440 nM; in assay [3], 2.1 nM.

Turning to `CC#C[C@]1(O)CC[C@H]2[C@@H]3CCC4=CC(=O)CCC4=C3[C@@H](c3ccc(N(C)C[C@@H](O)CC(=O)O)cc3)C[C@@]21C`, the IC50 in assay [1] amounted to 220 nM; in assay [2] it was 76 nM; in assay [4], 200 nM; in assay [3] it was 37 nM.

For the compound `Cc1c(NS(C)(=O)=O)cccc1N(Cc1ccc(Oc2cccc(OC[C@@H](O)C[C@@H](O)CC(=O)O)c2)cc1)Cc1ccc(F)cc1F`, the results for the IC50 in assay [1], in assay [2] and in assay [3] were more than 30000 nM, 760 nM and 15 nM, respectively.

For the compound `CC#C[C@]1(O)CC[C@H]2[C@@H]3CCC4=CC(=O)CCC4=C3[C@@H](c3ccc(N(C)C[C@@H](O)C[C@@H](O)CC(=O)O)cc3)C[C@@]21C`, the IC50 came to 130 nM in assay [1], 18 nM in assay [2], 32 nM in assay [4] and 6.8 nM in assay [3].

Regarding `CC#C[C@]1(O)CC[C@H]2[C@@H]3CCC4=CC(=O)CCC4=C3[C@@H](c3ccc(OC[C@@H](O)CC(O)CC(=O)O)cc3)C[C@@]21C` (single isomer, unassigned), the concentration for half-maximal inhibition (IC50) in assay [1] was 560 nM; in assay [2], 2900 nM; in assay [4], 47 nM; in assay [3], 9.2 nM.

The values above are taken from ChEMBL document CHEMBL1137148, “Synthesis, activity, metabolic stability, and pharmacokinetics of glucocorticoid receptor modulator-statin hybrids” (Bioorg Med Chem Lett, 2004).
